From publication PMC6606611, “A comparative analysis of secreted protein disulfide isomerases from the tropical co-endemic parasites Schistosoma mansoni and Leishmania major” (Scientific Reports, 2019)
pIC50: −log10 of the molar value.

Columns and labels:
[1] = target: T1, HsPDIA3/ERp57 (Homo sapiens, UniProt P30101); test: biochemical
T1 construct: gene PDIA3

[2] = target: T2, LmPDI (Leishmania major, UniProt Q8I8E1); test: fluorimetric di-eosin-GSSG disulfide reductase assay, […] protein; format: biochemical
T2 construct: gene pdi; recombinant, N-terminal cleavable His-FLAG tag
T2 sequence (Q8I8E1 entry or part of it): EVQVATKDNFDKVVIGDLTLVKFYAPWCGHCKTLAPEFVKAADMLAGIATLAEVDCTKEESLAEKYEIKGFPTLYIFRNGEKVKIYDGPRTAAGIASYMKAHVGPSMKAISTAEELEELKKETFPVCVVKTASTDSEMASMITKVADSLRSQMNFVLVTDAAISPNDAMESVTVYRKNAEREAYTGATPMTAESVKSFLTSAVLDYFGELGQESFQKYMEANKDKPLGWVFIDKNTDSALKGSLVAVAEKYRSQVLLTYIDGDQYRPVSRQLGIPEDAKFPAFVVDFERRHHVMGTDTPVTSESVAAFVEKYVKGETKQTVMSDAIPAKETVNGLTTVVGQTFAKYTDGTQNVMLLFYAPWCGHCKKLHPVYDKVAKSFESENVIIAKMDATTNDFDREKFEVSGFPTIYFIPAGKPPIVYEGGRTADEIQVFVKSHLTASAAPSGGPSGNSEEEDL

[3] = target: T3, SmERp60 (Schistosoma mansoni, UniProt P38658); test: as above; format: biochemical
T3 construct: recombinant, GST tag cleaved
T3 sequence (P38658 15-484): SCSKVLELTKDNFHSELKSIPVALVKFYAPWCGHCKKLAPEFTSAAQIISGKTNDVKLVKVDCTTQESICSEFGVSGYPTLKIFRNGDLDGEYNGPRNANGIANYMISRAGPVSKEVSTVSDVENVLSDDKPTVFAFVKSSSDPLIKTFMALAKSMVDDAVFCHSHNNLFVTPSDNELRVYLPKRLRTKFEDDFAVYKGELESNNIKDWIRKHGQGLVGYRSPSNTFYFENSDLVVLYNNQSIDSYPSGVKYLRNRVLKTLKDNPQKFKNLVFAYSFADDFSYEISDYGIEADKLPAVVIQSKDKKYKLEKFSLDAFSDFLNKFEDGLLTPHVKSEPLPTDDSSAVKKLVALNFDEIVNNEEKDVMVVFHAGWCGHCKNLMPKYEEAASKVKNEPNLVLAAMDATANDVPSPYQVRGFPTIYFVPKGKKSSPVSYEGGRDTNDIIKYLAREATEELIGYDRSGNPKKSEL

T1 sequence (P30101 25-505): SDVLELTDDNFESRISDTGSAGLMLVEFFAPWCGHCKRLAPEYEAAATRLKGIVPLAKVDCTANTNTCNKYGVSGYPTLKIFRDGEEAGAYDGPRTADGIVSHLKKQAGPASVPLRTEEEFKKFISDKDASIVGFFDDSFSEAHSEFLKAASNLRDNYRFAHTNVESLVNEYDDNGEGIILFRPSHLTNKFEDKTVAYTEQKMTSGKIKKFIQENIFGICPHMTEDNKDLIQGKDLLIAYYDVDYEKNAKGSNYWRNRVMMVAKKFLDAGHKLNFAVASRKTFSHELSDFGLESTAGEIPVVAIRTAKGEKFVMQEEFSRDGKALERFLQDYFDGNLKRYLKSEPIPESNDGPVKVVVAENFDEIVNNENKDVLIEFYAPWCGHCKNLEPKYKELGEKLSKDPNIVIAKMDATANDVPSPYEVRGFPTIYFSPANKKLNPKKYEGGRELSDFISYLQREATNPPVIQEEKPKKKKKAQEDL

Structure (SMILES)	pIC50 [1]	pIC50 [2]	pIC50 [3]
O=C1O[C@H]2[C@@H]3OC(=O)c4cc(O)c(O)c(O)c4-c4c(O)c(O)c5oc(=O)c6c(c(O)c(O)c7oc(=O)c4c5c76)-c4c(cc(O)c(O)c4O)C(=O)OC[C@H]3OC(O)[C@@H]2OC(=O)c2cc(O)c(O)c(O)c2-c2c1cc(O)c(O)c2O (mixture of isomers) [punicalagin]	6.30	5.14	–
COc1cc([C@H]2Oc3cc([C@H]4Oc5cc(O)cc(O)c5C(=O)[C@@H]4O)ccc3O[C@@H]2CO)ccc1O [silibinin A]	–	–	6.12
